Structures can show the parent of a compound that is named as a salt. Where two headings read alike, the source gives them in different places.

Data set [1] is described as follows: Pharmacokinetics and bioavailability test in beagle dogs (Test Example 4). It is filed as in vivo. The method, then: Experimental method: Six healthy beagle dogs were randomly divided into two groups, with two dogs (one female and one male) in the first group, and four dogs (two females and two males) in the second group. […] Blood samples were collected from the forelimb veins of beagle dogs at various time points before and after administration. Plasma was obtained by centrifugation, and drug concentrations in plasma at different time points were measured using LC-MS/MS. Pharmacokinetic parameters and the absolute oral bioavailability were calculated using WinNonlin8.0 software.

Data set [2] is described as follows: Pharmacokinetics and bioavailability test in beagle dogs (Test Example 3). It is filed as in vivo. Conditions: for bioavailability: absolute oral bioavailability. The method, then: Six healthy male beagle dogs were randomly divided into three groups, with two dogs in each group. […] Blood samples were collected from the forelimb vein of the dogs before and at various time points after administration. Plasma drug concentrations at different times were measured by LC-MS/MS. Pharmacokinetic parameters and the absolute oral bioavailability were calculated using WinNonlin7.0 software.

The next data set has as its target muscarinic receptors. Particulars: no significant affinity; cited from earlier work.
Data set [3] deals with calcium channel receptors. Conditions: no significant affinity; cited from earlier work.
Another data set deals with 5-HT2B receptors (Homo sapiens, UniProt P41595). Conditions: no significant affinity; cited from earlier work.
Sequence of 5-HT2B receptors (P41595 whole entry): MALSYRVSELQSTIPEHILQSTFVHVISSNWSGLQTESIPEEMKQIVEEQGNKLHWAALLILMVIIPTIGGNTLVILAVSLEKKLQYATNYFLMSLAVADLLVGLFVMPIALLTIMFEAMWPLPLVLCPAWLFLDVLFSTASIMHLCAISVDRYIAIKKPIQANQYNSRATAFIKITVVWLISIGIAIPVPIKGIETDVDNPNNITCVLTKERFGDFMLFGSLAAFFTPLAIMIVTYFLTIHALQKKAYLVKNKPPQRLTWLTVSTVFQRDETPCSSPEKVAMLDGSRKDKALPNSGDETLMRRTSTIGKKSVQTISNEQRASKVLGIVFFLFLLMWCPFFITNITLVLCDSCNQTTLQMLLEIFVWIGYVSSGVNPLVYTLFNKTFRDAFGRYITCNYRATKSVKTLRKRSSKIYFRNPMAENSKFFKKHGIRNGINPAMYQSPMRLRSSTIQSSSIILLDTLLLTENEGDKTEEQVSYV
Data set [4] has as its target dopamine receptors (including D2 receptors). Conditions: no significant affinity; cited from earlier work.
Another data set addresses adrenergic receptors. Particulars: no significant affinity; cited from earlier work.
Data set [5] is classed as physicochemical. Conditions: Water, 25°C ± 2°C. The method, then: An appropriate amount of the test substance was accurately weighed And placed under conditions of 25°C ± 2°C. Different solvents were added in suitable quantities, and the mixture was vigorously shaken for 30 seconds every 5 minutes, and the dissolution status was observed over a period of 30 minutes. […]

A short description of data set [6]: Stability test (high humidity, light, high temperature, high temperature stress; HPLC). It is filed as physicochemical. On the procedure:
These samples were stored under two different conditions: (1) relative humidity of 92.5% at 25°C, and (2) relative humidity of 75% ± 1% at room temperature; The samples were maintained under these conditions for 10 days. Sampling was performed on day 0 and day 10, followed by HPLC analysis.
HPLC analysis was performed on day 0 and day 10.
Samples were collected and subjected to HPLC analysis.

Experiment in data set [7]: as above
The format is physicochemical. The source holds these as a separate data set.

The mark [8] stands for this setting: IV 0.69 mg/kg (calculated based on free base).
Where [9] appears, read: dog, in vivo, IV 0.69 mg/kg (calculated based on free base).
[10] abbreviates: PO 10 mg/kg (calculated based on free base), capsule.
Setting [11] is: both sexes, dog, plasma, PO 10 mg/kg (calculated based on free base), capsule.
Setting [12] is: 75% High humidity for 10 days, room temperature.
Where [13] appears, read: 92.5% High humidity for 10 days, 25°C.
The mark [14] stands for this setting: High temperature of 40 °C for 10 days.
[15] abbreviates: High temperature of 60 °C for 10 days.
Where [16] appears, read: High temperature of 105 °C for 1 day.
[17] abbreviates: Light exposure for 10 days (5000 lx ± 500 lx; UV 90 µW/cm^2).
[18] abbreviates: PO 5 mg/kg (calculated as free base), capsules, male beagle dogs, plasma.

One may read the AUC(0-inf) as total exposure, with the tail of the curve extrapolated. As a reminder, the AUC(0-t) is the area under the concentration-time curve up to a stated or last time point. By Cmax is commonly meant the peak of the concentration-time curve. As usually defined, the Tmax is the time from dosing to the highest level. For orientation: clearance means the volume of plasma or blood freed of the substance per unit of time. What is called half-life is the time needed for the level to fall by half in the phase considered. For `CN1CCC(N2Cc3cc(F)ccc3CN(Cc3ccc(OC4CC4)cc3)C2=O)CC1` [citrate, 2-(4-cyclopropyloxybenzyl)-7-fluoro-4-(1-methylpiperidin-4-yl)-1,2,4-tetrahydro-3H-benzo[e][1 ,3]diazepine-3-one citrate], in data set [1] (setting [8]), the AUC_%Extrap was 4.20%, the MPT0-last is recorded as 4.41 h and the Rsq_adj is recorded as 1.00. Also, in data set [1] (setting [9]), the AUC(0-inf) was 466 ng·h/mL, the AUC(0-t) was 447 ng·h/mL, the maximum concentration (Cmax) was 220 ng/mL and the Tmax is 0.08 h. In addition, in [1] (setting [9]), the clearance was 24.7 mL/min/kg and the half-life was 2.2 h. Further, the Vd in data set [1] (dog, in vivo, IV 0.69 mg/kg (calculated based on free base), read-out: Vdss) was 2.5 L/kg. This compound came in with an area under the curve AUC(0-t) in [2] (dog, in vivo, IV 1 mg/kg, male beagle dogs, plasma) of 348 ng·h/mL. Besides, the peak concentration (Cmax) in data set [2] (dog, in vivo, IV 1 mg/kg, male beagle dogs, plasma, read-out: Cmax) is 138 ng/mL.
One may read the Ki as a measure of affinity in units of concentration, obtained from inhibition or displacement. In the case of `CC(C)COc1ccc(CNC(=O)N(Cc2ccc(F)cc2)C2CCN(C)CC2)cc1` [Pimavanserin], the Ki (on muscarinic receptors; in data set [3]; at 5-HT2B receptors; in data set [4]; on adrenergic receptors) was > 300 nM throughout.
A word on the bioavailability: it is dose-corrected exposure relative to a reference, in per cent. Regarding `CN1CCC(N2Cc3cc(F)ccc3CN(Cc3ccc(OC4CC4)cc3)C2=O)CC1.O=C(O)CC(O)(CC(=O)O)C(=O)O` [Crystalline form II, 2-(4-cyclopropyloxybenzyl)-7-fluoro-4-(1-methylpiperidin-4-yl)-1,2,4,5-tetrahydro-3H-benzo[e] [1,3]diazepine-3-one citrate], the AUC_%Extrap in data set [1] (setting [10]) was 2.12%. For the same compound, in data set [1] (setting [10]), the MPT0-last is 6.62 h. Moreover, the Rsq_adj in data set [1] (setting [10]) is 1.00. Also, the area under the curve AUC(0-inf) in [1] (setting [11]) is 6400 ng·h/mL. Further, the AUC(0-t) was 6280 ng·h/mL in [1] (setting [11]) and 139 ng·h/mL in data set [2] (dog, PO 5 mg/kg (calculated as free base), capsules, male beagle dogs, plasma). The Cmax is 754 ng/mL in data set [1] (setting [11]) and 38.8 ng/mL in [2] (dog, PO 5 mg/kg (calculated as free base), capsules, male beagle dogs, plasma, read-out: Cmax). Moreover, the Tmax in [1] (setting [11]) was 2.25 h. Besides, in data set [1] (setting [11]), the half-life is 3.96 h. For the same compound, the bioavailability in data set [1] (both sexes, dog, plasma, PO 10 mg/kg (calculated based on free base), capsule, absolute oral bioavailability) is 94.8%; in [2] (dog, plasma, PO 5 mg/kg (calculated as free base), capsules, male beagle dogs, read-out: bioavailability), 7.4%. Further, the “increase of bioavailability compared with the base compound” value in data set [2] (oral solid dosage form, PO 5 mg/kg, beagle dogs) is given as “more than 3 times”. In addition, the “Conclusion (solubility)” value in [5] (citrate) is “Very Slightly Soluble”. Also, the “HPLC determination results of the stability” value (shortened to “HPLC determination results”) in [6] (setting [12]) worked out at 99.749%; in data set [6] (setting [13]), 99.735%; in data set [6] (original sample (0 day)) it was 99.839%; in data set [7] (setting [14]), 99.756%; in data set [7] (setting [15]) it was 99.723%; in data set [7] (setting [16]) it was 99.709%. Moreover, the “HPLC determination results” value in [7] (setting [17]) was determined as 99.762%.
Turning to `CN1CCC(N2Cc3cc(F)ccc3CN(Cc3ccc(OC4CC4)cc3)C2=O)CC1` [Base compound, 2-(4-cyclopropyloxybenzyl)-7-fluoro-4-(1-methylpiperidin-4-yl)-1,2,4-tetrahydro-3H-benzo[e][1,3]d iazepine-3-one], the AUC0-last in [2] (setting [18]) was 43.9 ng·h/mL. The Cmax in [2] (setting [18]) is recorded as 10.2 ng/mL. Also, the bioavailability in data set [2] (PO 5 mg/kg (calculated as free base), capsules, male beagle dogs) is 2.4%. For the same compound, in data set [5], the “Conclusion (solubility)” value is “insoluble”. Also, the “HPLC determination results” value in data set [6] (setting [12]) is 97.643%; in data set [6] (setting [13]), 97.703%; in data set [6] (original sample (0 day)), 98.018%; in data set [7] (setting [14]), 95.418%; in data set [7] (setting [15]), 82.682%; in data set [7] (setting [16]), 76.929%. Moreover, in data set [7] (setting [17]), the “HPLC determination results” value was 95.604%.
